These results are taken from patent US20240409864A1, “Apparatus and Methods for Generating and Analyzing Three-Dimensional Cellular Materials” (Agilent Technologies, Inc., priority 2021, published 2024).

In one assay the test system is HepG2 spheroids. The experiment in a line: Mitochondrial stress test, oxygen consumption rate (Seahorse XF). It is filed as cell-based. Conditions: HepG2 spheroids assayed after 6 days, 50 microliters Lipidure coating.
Assay [1] has as its system Panc1 spheroids. The description is as above. It is filed as cell-based. The settings on record: Panc1 spheroids assayed after 8 days; polished plate, 20 microliters Lipidure coating; FIG. 15.
From the text: (§3) A common test performed on the system described above is a mitochondrial stress test. In this assay a series of injections are delivered through the drug ports of the cartridge in order to measure the response of the biological sample to various compounds (oligomycin, FCCP, rotenone and antimycin). These compounds are preloaded into a drug reservoir (port) on the XF cartridge prior to execution of the assay. When the cartridge is inserted into the instrument it is coupled to a manifold which when activated by a solenoid valve, provides pneumatic pressure to the head space of the reservoir forcing the compound through a small orifice and into the well containing the biological sample.
First, Panc1/HepG2 cells were grown in the well plates generally contemplated by the present disclosure but with only a single concentric lip as well as commercially available plates, followed by the transfer of the spheroids cultured in the commercially available plates to the plates of the present disclosure. The experimental protocol was as follows: • 1. Add 50 ul of Lipidure solution (prepared in ETOH) to the plates. Leave overnight at 37 degrees C. or at 50 degrees C. for 1 hour for the ETOH to evaporate. • 2. Trypsinize the HepG2 with multiple washes of Mg—Ca free PBS to make single cells. Leave in incubator at 37 deg C. for 2-3 mins. • 3. […]
Assay [2] has as its system Panc1 spheroids. Conditions: Panc1 spheroids about 325 and 250 micrometers, final concentration 1 μM, BioFLOAT coating, no centrifugation. The source says: (§1) Panc1, HepG2, and C2C12 cell lines were used to form spheroids in an apparatus with wells having the geometry shown at least in FIGS. 2, 3, and 4 of the present disclosure. The wells were coated with either Lipidure® or BioFLOAT® ultra low adhesion coatings according to manufacturer protocols, after which the cell lines were introduced to the well plates and spheroids were formed according to the following protocol: • Apply ULA coatings according to manufacturer's protocols • Use trypsin to detach cells of interest (C2C12, Panc1, or HepG2) and create a single cell suspension • Deactivate trypsin via addition of complete culture media • Perform a cell count • Centrifuge the cell suspension at 250 G for 5 minutes and resuspend the pellet in fresh medium at the required density. • Add 300-1500 cells per well with fresh growth medium to a final volume of 200 ul per well • Centrifuge, if necessary, at 250 G for 5 minutes with low deceleration. Centrifugation helps the cells to come together, if needed. • When desirable tight clusters are formed (typically 3-5 days), proceed with the Seahorse XF assay. • DMEM PH 7.4 media from Seahorse supplemented with glutamine, sodium pyruvate and glucose were used (same concentration as the growth medium). • With a multiple channel, pull out about 100 microliters of spent medium and add 100 microliters of fresh Seahorse medium slowly sliding through the walls. • Follow with 3-5 washes to dilute out the old media from the wells. • Perform desired Seahorse assay-Basal, Mito Stress Test, FCCP addition, or others.
(§2) Next, C2C12 and Panc1 cells were seeded in BioFLOAT® coated spheroid plates as contemplated by the present disclosure at two different concentrations. The cells were allowed to settle without centrifugation and form spheroids for two days. […] The largest cross-sectional diameter was measured to characterize the size of the spheroids.

A further assay relates to C2C12 spheroids. Conditions: C2C12 spheroids about 180 and 140 micrometers, final concentration 1 μM, BioFLOAT coating, no centrifugation.
From the text: as §1, §2

From the text for HepG2 spheroids: as §3
The experimental protocol was as follows: • 1. Add 50 ul of Lipidure solution (prepared in ETOH) to the plates. Leave overnight at 37 degrees C. or at 50 degrees C. for 1 hour for the ETOH to evaporate. • 2. Trypsinize the HepG2 with multiple washes of Mg—Ca free PBS to make single cells. Leave in incubator at 37 deg C. for 2-3 mins. • 3. Transfer cells to centrifugal tube and add PBS to fill half the tube then count cells based on density prior to centrifugation. • 4. Centrifuge the cell suspension and resuspend the pellet in fresh medium. • 5. Add 10K cells per well with fresh growth medium (180 ul per well) • 6. Centrifuge, if necessary, at 1000 rpm for 2-3 minutes with low deceleration. Centrifugation helps the cells to come together, if needed. • 7. When desirable tight clusters are formed (3-5 days), proceed with the Seahorse XF assay. • 8. For HepG2, DMEM PH 7.4 media from Seahorse supplemented with glutamine, sodium pyruvate and glucose were used (same concentration as the growth medium). • 9. With a multiple channel, pull out about 150 microliters of spent medium and add 180 microliters of fresh Seahorse medium slowly sliding through the walls. • 10. Follow with 2-3 washes to dilute out the FBS from the wells. • 11. After every wash check if the spheroid is still in the center. The white spot of the spheroid is easily seen on dark lab counter tops. • 12. Follow known protocol for traditional oxygen consumption rate (OCR) assay based on the mitochondrial stress test described in detail above. • 13. Take before and after images to verify the spheroids remain centered throughout. • 14.
Further, and referring to FIGS. 16 and 17, the oxygen consumption rate was performed on wells 1-6 using the mitochondrial stress test described above using HepG2 spheroids generated and assayed after 6 days in a plate with the geometric configuration of the present disclosure.

For the molecule `CC[C@H]1/C=C/C=C/C[C@@H](C)[C@H](O)[C@@](C)(O)C(=O)[C@@H](C)[C@H](O)[C@@H](C)C(=O)[C@@H](C)[C@H](O)[C@@H](C)/C=C/C(=O)O[C@@H]2[C@H](C)[C@H](CC1)O[C@]1(CC[C@H](C)[C@H](C[C@@H](C)O)O1)[C@H]2C` [oligomycin], the “oxygen consumption rate response” value in the assay with HepG2 spheroids (polished plate, FIG. 19) is “good response”; in the assay with HepG2 spheroids (unpolished plate, FIG. 17), “good response”; in the assay with Panc1 spheroids [1], “did not show the dip on oxygen consumption”.
As to FCCP, the “oxygen consumption rate response” value was “good response” with HepG2 spheroids (polished plate, FIG. 19); “good response” in the assay on HepG2 spheroids (unpolished plate, FIG. 17); “good response” in the assay with Panc1 spheroids [1]. The “oxygen consumption rate (OCR) after injection” value with Panc1 spheroids [2] (FIG. 42) and in the assay on C2C12 spheroids (FIG. 44) was “increased” throughout. In addition, the “extra cellular acidification rate (ECAR) after injection” value in the assay on Panc1 spheroids [2] (FIG. 43) and in the assay with C2C12 spheroids (FIG. 45) was “increased” throughout.
